Assay results taken from ChEMBL document CHEMBL3045179, “Mode of Action and QSAR Studies of Nitrification Inhibitors” (J Pestic Sci, 1997).

Key:
[1] = test system: Nitrosomonas europaea; assay: Inhibition of Nitrosomonas europaea ATCC 25978-mediated nitrification activity assessed as nitrite nitrogen formation after 7 to 10 days by Griess-Ilosvay method; type: functional, organism-based; conditions: read-out: pI50 (converted)
[2] = test system: Nitrosomonas europaea; assay: Inhibition of Nitrosomonas europaea ATCC 25978-mediated nitrification activity assessed as nitrite nitrogen formation at 1 mg/kg after 7 to 10 days by Griess-Ilosvay method relative to control; type: functional; conditions: values are per cent of control
[3] = Octanol-water partition coefficient, log P of the compound; type: physicochemical
[4] = test system: Nitrosomonas sp. TK794; assay: Inhibition of Nitrosomonas sp. TK794-mediated nitrification activity assessed as nitrite nitrogen formation at 1 mg/kg after 7 to 10 days by Griess-Ilosvay method relative to control; type: functional
[5] = test system: Nitrosomonas sp. TK794; assay: Inhibition of Nitrosomonas sp. TK794-mediated nitrification activity assessed as nitrite nitrogen formation at 5 mg/kg after 7 to 10 days by Griess-Ilosvay method relative to control; type: functional
[6] = test system: Nitrosomonas sp. TK794; assay: Inhibition of Nitrosomonas sp. TK794-mediated nitrification activity assessed as nitrite nitrogen formation at 0.5 mg/kg after 7 to 10 days by Griess-Ilosvay method relative to control; type: functional
[7] = test system: Nitrosomonas europaea; assay: Inhibition of Nitrosomonas europaea ATCC 25978-mediated nitrification activity assessed as nitrite nitrogen formation at 10 mg/kg after 7 to 10 days by Griess-Ilosvay method relative to control; type: functional
[8] = test system: Nitrosomonas europaea; assay: Inhibition of Nitrosomonas europaea ATCC 25978-mediated nitrification activity assessed as nitrite nitrogen formation at 0.5 mg/kg after 7 to 10 days by Griess-Ilosvay method relative to control; type: functional; conditions: values are per cent of control
[9] = test system: Nitrosomonas europaea; assay: Inhibition of Nitrosomonas europaea ATCC 25978-mediated nitrification activity assessed as nitrite nitrogen formation at 0.1 mg/kg after 7 to 10 days by Griess-Ilosvay method relative to control; type: functional; conditions: values are per cent of control
[10] = test system: Nitrosomonas sp. TK794; assay: Inhibition of Nitrosomonas sp. TK794-mediated nitrification activity assessed as nitrite nitrogen formation at 4 mg/kg after 7 to 10 days by Griess-Ilosvay method relative to control; type: functional
[11] = test system: Nitrosomonas europaea; assay: Inhibition of Nitrosomonas europaea ATCC 25978-mediated nitrification activity assessed as nitrite nitrogen formation at 2 mg/kg after 7 to 10 days by Griess-Ilosvay method relative to control; type: functional
[12] = test system: Nitrosomonas europaea; assay: Inhibition of Nitrosomonas europaea ATCC 25978-mediated nitrification activity assessed as nitrite nitrogen formation at 400 mg/kg after 7 to 10 days by Griess-Ilosvay method relative to control; type: functional
[13] = test system: Nitrosomonas sp. TK794; assay: Inhibition of Nitrosomonas sp. TK794-mediated nitrification activity assessed as nitrite nitrogen formation at 500 mg/kg after 7 to 10 days by Griess-Ilosvay method relative to control; type: functional

Cc1nc(Oc2ccc(Cl)cc2)nc(C(Cl)(Cl)Cl)n1
IC50 [1]: 741 nM | residual activity at 1 mg/kg [2]: 36.1% | logP ([3]; read-out: logP): 5.94 | inhibition in vivo at 1 mg/kg [4]: 47%

CCCNc1nc(C)nc(C(Cl)(Cl)Cl)n1
IC50 [1]: 2000 nM | residual activity at 1 mg/kg [2]: 42.9% | logP ([3]; read-out: logP): 4.56

Clc1cccc(C(Cl)(Cl)Cl)n1 [NITRAPYRIN]
inhibition in vivo at 5 mg/kg [5]: 22.9% | IC50 [1]: 1910 nM | residual activity at 1 mg/kg [2]: 30.1%

COc1nc(C)nc(C(Cl)(Cl)Cl)n1
logP ([3]; read-out: logP): 3.98 | inhibition in vivo at 0.5 mg/kg [6]: 32%

CCCOc1nc(-c2ccccc2)nc(C(Cl)(Cl)Cl)n1
inhibition in vivo at 5 mg/kg [5]: 47.9% | IC50 [1]: 3390 nM | residual activity at 1 mg/kg [2]: 48.5% | logP ([3]; read-out: logP): 6.22

Cc1nc(N(C)C)nc(C(Cl)(Cl)Cl)n1
logP ([3]; read-out: logP): 4.07 | inhibition in vivo at 1 mg/kg [4]: 58.7%

CCCCCCCCCCNc1nc(C(Cl)(Cl)Cl)nc(C(Cl)(Cl)Cl)n1
IC50 [1]: 10500 nM | inhibition in vivo at 10 mg/kg [7]: 36.8% | logP ([3]; read-out: logP): 7.9

CSc1nc(C(Cl)(Cl)Cl)nc(C(Cl)(Cl)Cl)n1
IC50 [1]: 186 nM | residual activity at 0.5 mg/kg [8]: 18.7% | logP ([3]; read-out: logP): 4.21 | inhibition in vivo at 0.5 mg/kg [6]: 41.3%

CCCCCCNc1nc(C)nc(C(Cl)(Cl)Cl)n1
IC50 [1]: 417 nM | residual activity at 0.1 mg/kg [9]: 54.5% | logP ([3]; read-out: logP): 6.13

Nc1nc(N)nc(C(Cl)(Cl)Cl)n1
IC50 [1]: 7080 nM | inhibition in vivo at 4 mg/kg [10]: 40% | inhibition in vivo at 2 mg/kg [11]: 63.2% | logP ([3]; read-out: logP): 1.21

CCCNc1nc(-c2ccccc2)nc(C(Cl)(Cl)Cl)n1
IC50 [1]: 389 nM | residual activity at 0.1 mg/kg [9]: 50.1% | logP ([3]; read-out: logP): 5.75 | inhibition in vivo at 0.5 mg/kg [6]: 58.1%

CCCCc1nc(C(Cl)(Cl)Cl)nc(C(Cl)(Cl)Cl)n1
IC50 [1]: 617 nM | residual activity at 1 mg/kg [2]: 29.5% | logP ([3]; read-out: logP): 5.65 | inhibition in vivo at 1 mg/kg [4]: 33.6%

CCNc1nc(C(Cl)(Cl)Cl)nc(C(Cl)(Cl)Cl)n1
IC50 [1]: 257 nM | residual activity at 0.1 mg/kg [9]: 52.7% | logP ([3]; read-out: logP): 3.68

Nc1nc(C(Cl)(Cl)Cl)nc(C(Cl)(Cl)Cl)n1
logP ([3]; read-out: logP): 2.45 | inhibition in vivo at 1 mg/kg [4]: 56.2%

CCCCCCCNc1nc(C)nc(C(Cl)(Cl)Cl)n1
IC50 [1]: 380 nM | residual activity at 0.1 mg/kg [9]: 44.9% | logP ([3]; read-out: logP): 6.66

CN(C)c1nc(-c2ccccc2)nc(C(Cl)(Cl)Cl)n1
inhibition in vivo at 5 mg/kg [5]: 43% | IC50 [1]: 1700 nM | residual activity at 1 mg/kg [2]: 40.1% | logP ([3]; read-out: logP): 5.4

CNc1nc(C(Cl)(Cl)Cl)nc(C(Cl)(Cl)Cl)n1
IC50 [1]: 589 nM | residual activity at 0.1 mg/kg [9]: 69.6% | logP ([3]; read-out: logP): 3.14

CCCCCCCCCNc1nc(C)nc(C(Cl)(Cl)Cl)n1
inhibition in vivo at 5 mg/kg [5]: 55% | IC50 [1]: 3020 nM | residual activity at 1 mg/kg [2]: 59% | logP ([3]; read-out: logP): 7.72

CCCNc1nc(C(Cl)(Cl)Cl)nc(C(Cl)(Cl)Cl)n1
IC50 [1]: 219 nM | residual activity at 0.1 mg/kg [9]: 60% | logP ([3]; read-out: logP): 4.19

Cc1nc(Nc2ccccc2)nc(C(Cl)(Cl)Cl)n1
IC50 [1]: 501 nM | residual activity at 0.1 mg/kg [9]: 66% | logP ([3]; read-out: logP): 4.7 | inhibition in vivo at 1 mg/kg [4]: 39%

CCCCCCCCCCCCCCCCNc1nc(C)nc(C(Cl)(Cl)Cl)n1
logP [3]: 11.4 | inhibition in vivo at 400 mg/kg [12]: 45.2% | inhibition in vivo at 500 mg/kg [13]: 81%

COc1nc(N)nc(C(Cl)(Cl)Cl)n1
IC50 [1]: 490 nM | residual activity at 0.1 mg/kg [9]: 36.1% | logP ([3]; read-out: logP): 2.36 | inhibition in vivo at 0.5 mg/kg [6]: 29.5%

CCCCN(CCCC)c1nc(C)nc(C(Cl)(Cl)Cl)n1
IC50 [1]: 2090 nM | residual activity at 1 mg/kg [2]: 56.2% | logP ([3]; read-out: logP): 7.23 | inhibition in vivo at 1 mg/kg [4]: 56.8%

CCCCNc1nc(C)nc(C(Cl)(Cl)Cl)n1
IC50 [1]: 1510 nM | residual activity at 0.1 mg/kg [9]: 79.5% | logP ([3]; read-out: logP): 5.08

CCCCCCNc1nc(C(Cl)(Cl)Cl)nc(C(Cl)(Cl)Cl)n1
IC50 [1]: 1660 nM | residual activity at 1 mg/kg [2]: 42.7% | logP ([3]; read-out: logP): 5.79

Cc1nc(N)nc(C(Cl)(Cl)Cl)n1
inhibition in vivo at 5 mg/kg [5]: 42.1% | logP ([3]; read-out: logP): 2.82
